{
  "source": "paper PMC11266321",
  "about": "(EJNMMI Radiopharmacy and Chemistry, 2024)",
  "key": {"[1]": {"target": "T1, Glutamate (NMDA glycine site) (Homo sapiens, UniProt Q05586)", "T1 construct": "Sekisui Medical (contract laboratory)", "experiment": "Radioligand binding inhibition, Glutamate NMDA glycine site", "conditions": "10 µM; radioligand [^3H]MDL105,519; mean of duplicate", "procedure": "(§1) Interaction of MMP with 28 binding sites was examined, including major classes of neurotransmitter receptor, uptake system, and ion channels (Sekisui Medical, Naka, Japan). MMP was tested in all assays at 10 µM. […] 10.2.3 (GraphPad Software, San Diego, CA). Each determination was made in duplicate.\n(§2) Test substance concentration : 10 µM, positive substance concentration : 10 µM\n(§3) Data are expressed as the mean values of duplicate samples.\n(§4) The % inhibition was calculated from “100 – binding ratio”.\n(§5) Binding ratio: [(B - N) / (B0 - N)] × 100 (%)\n(§6) B: Bound radioactivity in the presence of test substance and positive substance (individual value)\n(§7) B0: Total bound radioactivity in the absence of test substance and positive substance (mean value)\n(§8) N: Non-specific bound radioactivity (mean value)"}, "GABA A (agonist site)": {"system": "GABA A (agonist site)", "experiment": "Radioligand binding inhibition, GABA A agonist site", "conditions": "10 µM; radioligand [^3H]Muscimol; mean of duplicate", "procedure": "as §1, §2, §3, §4, §5, §6, §7, §8"}, "Nicotinic (neuronal)": {"system": "Nicotinic (neuronal)", "assay_type": "binding", "conditions": "10 µM; radioligand [^3H]Cytisine; mean of duplicate"}, "[2]": {"system": "Glutamate (NMDA phencyclidine site)", "experiment": "Radioligand binding inhibition, Glutamate NMDA phencyclidine site", "conditions": "10 µM; radioligand [^3H]MK-801; mean of duplicate", "procedure": "as §1, §2, §3, §4, §5, §6, §7, §8"}, "Opiate (non-selective)": {"system": "Opiate (non-selective)", "experiment": "Radioligand binding inhibition, Opiate", "conditions": "10 µM; radioligand [^3H]Naloxone; mean of duplicate", "procedure": "as §1, §2, §3, §4, §5, §6, §7, §8"}, "Serotonin 5HT2A": {"target": "T2, Serotonin 5HT2A (Homo sapiens, UniProt P28223)", "T2 construct": "Sekisui Medical (contract laboratory that ran the panel)", "T2 sequence (P28223 whole entry)": "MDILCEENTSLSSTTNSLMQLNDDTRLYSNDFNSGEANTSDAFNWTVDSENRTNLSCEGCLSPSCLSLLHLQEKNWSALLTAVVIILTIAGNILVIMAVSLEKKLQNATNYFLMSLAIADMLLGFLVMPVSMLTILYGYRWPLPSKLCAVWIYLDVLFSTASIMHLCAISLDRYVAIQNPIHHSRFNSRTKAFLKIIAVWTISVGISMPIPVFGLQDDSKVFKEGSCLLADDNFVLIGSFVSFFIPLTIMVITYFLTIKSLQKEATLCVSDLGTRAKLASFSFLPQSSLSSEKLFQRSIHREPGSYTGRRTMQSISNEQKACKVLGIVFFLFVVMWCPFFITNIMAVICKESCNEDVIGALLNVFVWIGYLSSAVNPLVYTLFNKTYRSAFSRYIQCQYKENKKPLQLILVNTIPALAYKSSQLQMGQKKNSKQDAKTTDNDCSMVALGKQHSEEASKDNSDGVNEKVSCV", "experiment": "Radioligand binding inhibition, Serotonin 5HT2A", "conditions": "10 µM; radioligand [^3H]Ketanserin; mean of duplicate", "procedure": "as §1, §2, §3, §4, §5, §6, §7, §8"}, "[3]": {"system": "β-Adrenergic (non-selective)", "experiment": "Radioligand binding inhibition, β-Adrenergic", "conditions": "10 µM; radioligand [^3H]DHA; mean of duplicate", "procedure": "as §1, §2, §3, §4, §5, §6, §7, §8"}, "Glutamate (AMPA)": {"system": "Glutamate (AMPA)", "experiment": "Radioligand binding inhibition, Glutamate AMPA", "conditions": "10 µM; radioligand [^3H]AMPA; mean of duplicate", "procedure": "as §1, §2, §3, §4, §5, §6, §7, §8"}, "Serotonin 5HT1A": {"target": "T3, Serotonin 5HT1A (Homo sapiens, UniProt P08908)", "T3 construct": "Sekisui Medical (contract laboratory)", "T3 sequence (P08908 whole entry)": "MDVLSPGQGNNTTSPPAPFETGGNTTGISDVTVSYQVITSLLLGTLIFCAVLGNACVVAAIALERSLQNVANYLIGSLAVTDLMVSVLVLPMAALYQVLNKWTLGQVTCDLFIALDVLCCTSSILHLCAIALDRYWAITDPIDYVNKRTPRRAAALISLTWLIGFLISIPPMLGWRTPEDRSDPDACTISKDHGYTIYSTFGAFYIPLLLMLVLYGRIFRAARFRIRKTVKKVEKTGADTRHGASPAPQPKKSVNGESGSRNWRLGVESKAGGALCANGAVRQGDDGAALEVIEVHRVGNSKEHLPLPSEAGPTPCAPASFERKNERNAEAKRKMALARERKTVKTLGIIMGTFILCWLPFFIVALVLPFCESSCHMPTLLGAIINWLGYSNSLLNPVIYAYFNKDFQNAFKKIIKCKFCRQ", "experiment": "Radioligand binding inhibition, Serotonin 5HT1A", "conditions": "10 µM; radioligand [^3H]8-OH DPAT; mean of duplicate", "procedure": "as §1, §2, §3, §4, §5, §6, §7, §8"}, "Glutamate (Ketamine)": {"system": "Glutamate (Ketamine)", "experiment": "Radioligand binding inhibition, Glutamate (Ketamine)", "conditions": "10 µM; radioligand [^3H]Kainic acid; mean of duplicate"}, "[4]": {"system": "Glutamate (NMDA agonist site)", "experiment": "Radioligand binding inhibition, Glutamate NMDA agonist site", "conditions": "10 µM; radioligand [^3H]CGP-39653; mean of duplicate", "procedure": "as §1, §2, §3, §4, §5, §6, §7, §8"}, "[5]": {"system": "Glutamate (non-selective)", "experiment": "Radioligand binding inhibition, Glutamate non-selective", "conditions": "10 µM; radioligand [^3H]Glutamic acid; mean of duplicate", "procedure": "as §1, §2, §3, §4, §5, §6, §7, §8"}, "[6]": {"system": "α2-Adrenergic (non-selective)", "experiment": "Radioligand binding inhibition, α2-Adrenergic", "conditions": "10 µM; radioligand [^3H]Rauwolscine; mean of duplicate", "procedure": "as §1, §2, §3, §4, §5, §6, §7, §8"}, "GABA A (BZ central)": {"system": "GABA A (BZ central)", "experiment": "Radioligand binding inhibition, GABA A BZ central", "conditions": "10 µM; radioligand [^3H]Flunitrazepam; mean of duplicate", "procedure": "as §1, §2, §3, §4, §5, §6, §7, §8"}, "[7]": {"system": "Glycine (strychnine site)", "assay_type": "binding", "conditions": "10 µM; radioligand [^3H]Strychine; mean of duplicate"}, "Dopamine D2": {"target": "T4, Dopamine D2 (Homo sapiens, UniProt P14416)", "T4 construct": "Sekisui Medical (contract laboratory)", "T4 sequence (P14416 whole entry)": "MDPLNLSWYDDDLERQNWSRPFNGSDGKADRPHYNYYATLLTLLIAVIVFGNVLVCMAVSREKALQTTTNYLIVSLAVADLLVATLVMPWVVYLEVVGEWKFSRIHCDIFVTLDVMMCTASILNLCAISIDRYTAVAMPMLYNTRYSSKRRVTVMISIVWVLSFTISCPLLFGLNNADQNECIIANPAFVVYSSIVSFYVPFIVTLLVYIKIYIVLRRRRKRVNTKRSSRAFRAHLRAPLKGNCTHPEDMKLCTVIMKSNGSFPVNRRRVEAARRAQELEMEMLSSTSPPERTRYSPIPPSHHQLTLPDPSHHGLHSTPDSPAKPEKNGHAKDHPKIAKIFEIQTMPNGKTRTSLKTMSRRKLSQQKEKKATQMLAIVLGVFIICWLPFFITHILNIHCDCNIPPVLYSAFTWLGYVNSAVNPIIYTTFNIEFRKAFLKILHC", "experiment": "Radioligand binding inhibition, Dopamine D2", "conditions": "10 µM; radioligand [^3H]Spiperone; mean of duplicate", "procedure": "as §1, §2, §3, §4, §5, §6, §7, §8"}, "Serotonin 5HT3 (human)": {"target": "T5, Serotonin 5HT3 (human) (Homo sapiens, UniProt P46098)", "T5 construct": "Sekisui Medical (contract laboratory that ran the panel)", "T5 sequence (P46098 24-478)": "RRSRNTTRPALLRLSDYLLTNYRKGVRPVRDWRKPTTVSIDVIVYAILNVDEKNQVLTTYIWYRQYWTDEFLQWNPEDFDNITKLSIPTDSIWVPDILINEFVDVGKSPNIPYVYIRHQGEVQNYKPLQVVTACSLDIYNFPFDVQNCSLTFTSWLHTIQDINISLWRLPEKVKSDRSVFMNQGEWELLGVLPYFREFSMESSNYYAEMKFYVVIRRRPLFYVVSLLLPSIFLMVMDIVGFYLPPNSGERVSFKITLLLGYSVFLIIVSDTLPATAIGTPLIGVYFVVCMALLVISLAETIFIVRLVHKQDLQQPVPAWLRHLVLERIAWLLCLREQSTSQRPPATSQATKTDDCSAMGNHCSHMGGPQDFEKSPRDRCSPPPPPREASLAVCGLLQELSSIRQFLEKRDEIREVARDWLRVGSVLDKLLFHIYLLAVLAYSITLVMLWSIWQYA", "experiment": "Radioligand binding inhibition, Serotonin 5HT3", "conditions": "10 µM; radioligand [^3H]GR65630; mean of duplicate", "procedure": "as §1, §2, §3, §4, §5, §6, §7, §8"}, "Histamine H2": {"target": "T6, Histamine H2 (Homo sapiens, UniProt P25021)", "T6 construct": "Sekisui Medical (contract laboratory)", "T6 sequence (P25021 whole entry)": "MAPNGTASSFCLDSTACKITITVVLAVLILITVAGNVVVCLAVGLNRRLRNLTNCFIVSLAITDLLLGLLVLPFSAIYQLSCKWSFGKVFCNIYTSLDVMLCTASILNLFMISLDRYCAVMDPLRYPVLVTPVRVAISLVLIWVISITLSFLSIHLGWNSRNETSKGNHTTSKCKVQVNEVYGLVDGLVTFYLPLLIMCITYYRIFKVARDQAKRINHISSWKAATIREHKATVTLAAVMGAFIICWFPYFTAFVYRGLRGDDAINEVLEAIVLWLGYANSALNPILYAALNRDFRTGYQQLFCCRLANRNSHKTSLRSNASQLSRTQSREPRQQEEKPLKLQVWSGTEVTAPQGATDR", "experiment": "Radioligand binding inhibition, Histamine H2", "conditions": "10 µM; radioligand [^125I]Iodoaminopotentidine; mean of duplicate", "procedure": "as §1, §2, §3, §4, §5, §6, §7, §8"}},
  "data": [
    {"compound": "O=C(O)/C(=C/c1c(C(=O)O)[nH]c2cc(Cl)cc(Cl)c12)c1ccccc1", "note": "[MDL105,519, reference compound]", "values": [
      {"measurement": "Inhibition ratio (%)", "setting": "[1]", "result": 97.35, "unit": "%"}
    ]},
    {"compound": "NCc1cc(=O)[nH]o1", "note": "[Muscimol, reference compound]", "values": [
      {"measurement": "Inhibition ratio (%)", "setting": "GABA A (agonist site)", "result": 96.50, "unit": "%"}
    ]},
    {"compound": "(±)-Nicotine [reference compound]", "values": [
      {"measurement": "Inhibition ratio (%)", "setting": "Nicotinic (neuronal)", "result": 95.62, "unit": "%"}
    ]},
    {"compound": "(+)-MK-801 [reference compound]", "values": [
      {"measurement": "Inhibition ratio (%)", "setting": "[2]", "result": 100.00, "unit": "%"}
    ]},
    {"compound": "C=CCN1CC[C@]23c4c5ccc(O)c4O[C@H]2C(=O)CC[C@@]3(O)[C@H]1C5", "note": "[Naloxone, reference compound]", "values": [
      {"measurement": "Inhibition ratio (%)", "setting": "Opiate (non-selective)", "result": 96.53, "unit": "%"}
    ]},
    {"compound": "O=C(c1ccc(F)cc1)C1CCN(CCn2c(=O)[nH]c3ccccc3c2=O)CC1", "note": "[Ketanserin, reference compound]", "values": [
      {"measurement": "Inhibition ratio (%)", "setting": "Serotonin 5HT2A", "result": 98.94, "unit": "%"}
    ]},
    {"compound": "CC(C)NCC(O)COc1cccc2ccccc12", "note": "(racemic) [(±)-Propranolol, reference compound]", "values": [
      {"measurement": "Inhibition ratio (%)", "setting": "[3]", "result": 97.25, "unit": "%"}
    ]},
    {"compound": "Cc1o[nH]c(=O)c1C[C@H](N)C(=O)O", "note": "[(S)-AMPA, reference compound]", "values": [
      {"measurement": "Inhibition ratio (%)", "setting": "Glutamate (AMPA)", "result": 98.65, "unit": "%"}
    ]},
    {"compound": "NCCc1c[nH]c2ccc(O)cc12", "note": "[Serotonin, reference compound]", "values": [
      {"measurement": "Inhibition ratio (%)", "setting": "Serotonin 5HT1A", "result": 95.99, "unit": "%"}
    ]},
    {"compound": "C=C(C)[C@H]1CN[C@H](C(=O)O)[C@H]1CC(=O)O", "note": "[Kainic acid, reference compound]", "values": [
      {"measurement": "Inhibition ratio (%)", "setting": "Glutamate (Ketamine)", "result": 97.79, "unit": "%"}
    ]},
    {"compound": "N[C@@H](CCC(=O)O)C(=O)O", "note": "[L-Glutamic acid, reference compound]", "values": [
      {"measurement": "Inhibition ratio (%)", "setting": "[4]", "result": 100.00, "unit": "%"},
      {"measurement": "Inhibition ratio (%)", "setting": "[5]", "result": 93.56, "unit": "%"}
    ]},
    {"compound": "COC(=O)[C@@H]1[C@H]2C[C@H]3c4[nH]c5ccccc5c4CCN3C[C@@H]2CC[C@@H]1O", "note": "[Yohimbine, reference compound]", "values": [
      {"measurement": "Inhibition ratio (%)", "setting": "[6]", "result": 89.82, "unit": "%"}
    ]},
    {"compound": "CN1C(=O)CN=C(c2ccccc2)c2cc(Cl)ccc21", "note": "[Diazepam, reference compound]", "values": [
      {"measurement": "Inhibition ratio (%)", "setting": "GABA A (BZ central)", "result": 100.00, "unit": "%"}
    ]},
    {"compound": "O=C1C[C@@H]2OCC=C3CN4CC[C@]56c7ccccc7N1[C@H]5[C@H]2[C@H]3C[C@H]46", "note": "[Strychnine, reference compound]", "values": [
      {"measurement": "Inhibition ratio (%)", "setting": "[7]", "result": 100.00, "unit": "%"}
    ]},
    {"compound": "(+)-Butaclamol [reference compound]", "values": [
      {"measurement": "Inhibition ratio (%)", "setting": "Dopamine D2", "result": 95.06, "unit": "%"}
    ]},
    {"compound": "CN1[C@@H]2CC[C@H]1C[C@@H](OC(=O)c1c[nH]c3ccccc13)C2", "note": "[Tropisetron, reference compound]", "values": [
      {"measurement": "Inhibition ratio (%)", "setting": "Serotonin 5HT3 (human)", "result": 99.78, "unit": "%"}
    ]},
    {"compound": "CN/C(=N/CCSCc1nc[nH]c1C)NC#N", "note": "[Cimetidine, reference compound]", "values": [
      {"measurement": "Inhibition ratio (%)", "setting": "Histamine H2", "result": 97.63, "unit": "%"}
    ]}
  ]
}
